Assay results: patent publication US5763469A, “Substituted cyclic ureas and derivatives thereof useful as retroviral protease inhibitors” (The DuPont Merck Pharmaceutical Company, priority 1996, dated 1998)
Values after ≈ are worked out from the molar mass of the structure shown.

Tested on: HIV-1 (RF)
Experiment: HIV RNA assay: microplate based compound evaluation in HIV-1 infected MT-2 cells
Format: cell-based
Conditions: Human immunodeficiency virus 1, MT2, 72 h; HIV-1 (RF) infected MT-2 cells, 3 days of culture; virus dilutions were selected to give this value (standardisation of inoculum); read-out: IC90 value (concentration of compound required to reduce the HIV RNA level by 90%)
Experimental: MT-2, CEM, and H9 cells were maintained in RPMI 1640 supplemented with 5% fetal calf serum (FCS), 2 mM L-glutamine and 50 μg/mL gentamycin, all from Gibco. Laboratory strains of HIV-1 (RF, MN and IIIB) were propagated in H9 cells in the same medium. Virus stocks were prepared approximately 1 month after acute infection of H9 cells by clarification of the tissue culture medium and storage of aliquots at -70° C. Infectious titers of HIV-1 (RF) stocks were 1-3×10^7 PFU (plaque forming units)/mL as measured by plaque assay on MT-2 cells (see below). Each aliquot of virus stock used for infection was thawed only once. […]
Cell lysates or purified RNA in 3M or 5M GED were mixed with 5M GED and capture probe to a final guanidinium isothiocyanate concentration of 3M and a final biotin oligonucleotide concentration of 30 nM. […] Immobilized alkaline phosphatase activity was detected by addition of 100 μL of 0.2 mM 4-methylumbelliferyl phosphate (MUBP, JBL Scientific) in buffer δ(2.5M diethanolamine pH 8.9 (JBL Scientific), 10 mM MgCl2, 5 mM zinc acetate dihydrate and 5 mM N-hydroxyethyl-ethylene-diamine-triacetic acid). […] Fluorescence at […] was measured using a microplate fluorometer (Dynateck) exciting at 365 nm.
Compounds to be evaluated were dissolved in DMSO and diluted in culture medium to twice the highest concentration to be tested and a maximum DMSO concentration of 2%. […]

IC90: 0.2 µg/mL (≈ 0.947 µM)
SMILES: Nc1ccn([C@H]2CC[C@@H](CO)O2)c(=O)n1 [ddC, dideoxycytidine]
